Common to all, as to assay: NCI-60 cell line screen, 48 h
For assay [1], the system named is SN12C renal.
Assay [2] deals with NCI-H226 lung.
The test system of assay [3] is M14 melanoma.
Assay [4] has as its system OVCAR-5 ovarian.
For assay [5], the system named is EKVX NSCLC.
Assay [6] relates to KM12 colon.
Assay [7] deals with HL-60(TB) leukemia.
Assay [8] has as its system 786-0 renal.
The test system of assay [9] is NCI-H522 lung.

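Assay format: 96-well plates, 48-hour exposure. The concentration for 50% growth inhibition is given as GI50. Definition used: TGI = concentration required for complete inhibition of growth.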

With `N/N=C1\C(=O)N(c2ccc(Cl)cc2Cl)C(=O)C(=O)C1c1nc2ccccc2o1` (stereo not given), the TGI in [1], in assay [2], in [3], in assay [4], in assay [5] and in assay [6] was over 100 µM in each case. The TGI in assay [7], in assay [8] and in assay [9] was over 100 µM throughout.

Consider `c1ccc2c(c1)oc1ccc3nsnc3c12`, for which the TGI in assay [2], in assay [3], in assay [4], in assay [5], in assay [6] and in assay [7] was over 100 µM throughout. Besides, the TGI in assay [8] and in assay [9] was over 100 µM throughout.

On to `N.N.N.N.N.O=[N+]([O-])[O-].[Co+3].[O-][Cl+3]([O-])([O-])[O-]`, for which the GI50 in [1], in assay [3], in [4], in [5], in assay [6] and in assay [7] was over 100 µM in each case. The GI50 in assay [8] and in [9] was over 100 µM in each case. Also, the TGI in [1], in assay [3], in [4], in assay [5], in [6] and in assay [7] was over 100 µM throughout. In addition, the TGI in [8] and in assay [9] was over 100 µM throughout.

In the case of `COc1ccc(/C(Cl)=C/c2cc(OC)ccc2OC)cc1`, the TGI in assay [1] is over 100 µM; in assay [2], over 100 µM; in [3], over 100 µM; in assay [5] it was over 100 µM; in assay [7], 81.8 µM; in assay [8] it was over 100 µM. The TGI in assay [9] is over 100 µM.

As to `C=CCC1=C(C)C[C@@H]2CCC(=O)C=C12`, the TGI in assay [1], in [3], in [4], in assay [5], in assay [6] and in [7] was over 100 µM throughout. Also, the TGI in [8] and in [9] was over 100 µM each time.

With `c1ccc(CN2CCC(Nc3ccccc3)(c3nnnn3Cc3ccccc3)CC2)cc1`, the TGI is over 100 µM in [1]; over 100 µM in [2]; 38.5 µM in assay [3]; 76.1 µM in [4]; over 100 µM in assay [5]; 33.3 µM in assay [6]. Moreover, the TGI was determined as 25.9 µM in assay [7] and 60.6 µM in [8].

For the compound `COc1ccc(CCn2c(=O)c3ccccc3n(C)c2=O)cc1`, the TGI in assay [1], in assay [3], in assay [4], in assay [5], in [6] and in assay [8] was over 100 µM each time. This compound came in with a TGI in [9] of 95.2 µM.

In the case of `NNC(=O)C(=O)N/N=C1\CCC(=O)CC1C(=O)CCC(=O)Nc1ccc(Cl)cc1` (stereo not given), the TGI in assay [1], in assay [2], in [3], in assay [4], in [5] and in assay [6] was over 100 µM in each case. In addition, the TGI in assay [7] and in assay [8] was over 100 µM throughout.

In the case of `COc1ccc(CCc2cc(OC)cc(OC)c2)cc1`, the TGI in assay [1], in assay [2], in assay [3], in assay [4], in assay [5] and in assay [6] was over 100 µM each time. In addition, the TGI in assay [7] was over 84.5 µM; in assay [8], over 100 µM; in [9], over 41 µM.

As for `C=CCO/N=C(\OC(=O)c1ccc([N+](=O)[O-])cc1)c1ccccc1`, the TGI in [1], in assay [2], in [3], in assay [4], in assay [5] and in [6] was over 100 µM throughout. In addition, the TGI in assay [8] was over 100 µM.

For `CC(=O)O[C@]1(C)OC(=O)[C@@H](CC(C)C)N1[N+](=O)[O-]`, the TGI in assay [1], in assay [2], in assay [3], in [4], in [5] and in [6] was over 100 µM in each case. Further, the TGI in assay [7], in [8] and in assay [9] was over 100 µM throughout.

`Cc1c(NC(=S)NC(=O)c2ccc([N+](=O)[O-])cc2)c(=O)n(-c2ccccc2)n1C`: the TGI in [1], in assay [2], in [3], in assay [4], in assay [5] and in assay [6] was over 100 µM each time. The TGI in assay [7], in assay [8] and in [9] was over 100 µM throughout.

On to `CC1=NN(C(=O)c2ccc(Cl)cc2)C(=O)/C1=C/c1ccccc1O`, for which the TGI in assay [1], in assay [3], in assay [4], in [5], in assay [6] and in assay [7] was over 100 µM in each case. Also, the TGI in assay [8] and in [9] was over 100 µM in each case.

Turning to `CN(C)c1nc2ccccc2c2c1c1c(n2Cc2ccccc2)-c2ccccc2C1=O`, the GI50 in [1], in assay [2], in assay [3], in assay [4], in assay [5] and in [6] was over 100 µM each time. For the same compound, the values for the GI50 in assay [7], in assay [8] and in assay [9] were 91.6 µM, over 100 µM and over 100 µM, respectively. Moreover, the TGI in assay [1], in [2], in [3], in [4], in assay [5] and in [6] was over 100 µM each time. The TGI in assay [7], in assay [8] and in [9] was over 100 µM in each case.

As to `O=S(=O)(NCn1ccc2ccccc21)c1ccccc1`, the TGI in assay [1], in assay [2], in [3], in assay [4], in assay [5] and in assay [6] was over 100 µM throughout. Further, the TGI in assay [7] was 41 µM; in [8] it was over 100 µM; in [9] it was over 100 µM.

The values are drawn from PubChem BioAssay (NCI).
